For two compounds, LogP results are on record in patent US10039283B2, “Substituted pyrazolyl-nicotin(thio)amide derivatives and their use as fungicides” (BAYER CROPSCIENCE AKTIENGESELLSCHAFT, priority 2014, dated 2018).

Data set [1] can be described thus: Log P by HPLC on reversed phase, method [a], acidic range (0.1% formic acid). The settings on record: LC-UV, 0.1% formic acid in water and acetonitrile. It counts as physicochemical.
Data set [2] is described as follows: Log P by HPLC on reversed phase, method [b], neutral range (0.001 molar ammonium acetate). It counts as physicochemical. As to the method: Measurement of Log P values was performed according to EEC directive 79/831 Annex V.A8 by HPLC (High Performance Liquid Chromatography) on reversed phase columns with the following methods: [b] Log P value is determined by measurement of LC-UV, in a neutral range, with 0.001 molar ammonium acetate solution in water and acetonitrile as eluent (linear gradient from 10% acetonitrile to 95% acetonitrile). Calibration was done with straight-chain alkan2-ones (with 3 to 16 carbon atoms) with known Log P values (measurement of Log P values using retention times with linear interpolation between successive alkanones). Lambda-max-values were determined using UV-spectra from 200 nm to 400 nm and the peak values of the chromatographic signals.

`Cc1c(NC(=O)c2cccnc2C(F)F)cnn1-c1ccccc1F` [Example 22]: the LogP in data set [1] was 1.71^[a];; in data set [2], 1.68^[b].

In the case of `O=C(Nc1cnn(-c2ccccc2Cl)c1C(F)(F)F)c1cccnc1C(F)F` [Example 77], the figures for the LogP in data set [1] and in data set [2] were 2.58^[a]; and 2.53^[b], respectively.
